Measured values from BindingDB's records for doi:10.1021/jm00167a035 (Squibb Institute For Medical Research, 1990).

Columns and labels:
[1] = Inhibition of [3H]nitrendipine binding to L-type calcium channel in guinea pig ventricular myocardium membranes
[2] = as above; remark: listed apart in the source

SMILES | Kd [1] [nM] | Kd [2] [nM]
CCOC(=O)C1C(C)=NC(SC)=NC1c1cccc([N+](=O)[O-])c1 (configuration not stated) | 23 | –
CCOC(=O)C1=C(C)NC(N(C)C)=NC1c1cccc([N+](=O)[O-])c1 (configuration not stated) | – | 3400
CCOC(=O)C1=C(C)N=C(OC)NC1c1cccc([N+](=O)[O-])c1 (configuration not stated) | – | 105
COC(=O)C1=C(C)N=C(SC)NC1c1cccc([N+](=O)[O-])c1 (configuration not stated) | – | 120

The remaining lines, values ahead:

Kd [1] [nM] | Kd [2] [nM] | SMILES
– | 2.6 | CCC(C)OC(=O)C1=C(C)NC(SC)=NC1c1cccc([N+](=O)[O-])c1 (configuration not stated)
– | 12 | CSC1=NC(c2cccc([N+](=O)[O-])c2)C(C(=O)OC(C)C)=C(C)N1 (configuration not stated)
– | 35 | CCOC(=O)C1=C(C)NC(SC)=NC1c1ccccc1C(F)(F)F (configuration not stated)
